{
  "source": "paper PMC4917279",
  "about": "(Journal of Medicinal Chemistry, 2016)",
  "key": {"[1]": {"target": "T1, CSNK2A1 (Homo sapiens, UniProt P68400)", "T1 construct": "purchased DiscoveRx KINOMEscan", "assay": "KINOMEscan", "type": "binding", "settings": "read-out: %Ctrl @ 1000 nM"}, "[2]": {"target": "T2, MEK6 (Homo sapiens, UniProt P52564)", "T2 construct": "purchased DiscoveRx KINOMEscan", "assay": "KINOMEscan", "type": "binding", "settings": "read-out: %Ctrl @ 1000 nM"}, "[3]": {"target": "T3, EGFR(L747-S752del, P753S) (Homo sapiens, UniProt P00533, DEL747-752/P753S)", "T3 construct": "purchased DiscoveRx KINOMEscan", "T3 sequence (P00533 with tags, fused parts or gaps DEL747-752/P753S limits assumed)": "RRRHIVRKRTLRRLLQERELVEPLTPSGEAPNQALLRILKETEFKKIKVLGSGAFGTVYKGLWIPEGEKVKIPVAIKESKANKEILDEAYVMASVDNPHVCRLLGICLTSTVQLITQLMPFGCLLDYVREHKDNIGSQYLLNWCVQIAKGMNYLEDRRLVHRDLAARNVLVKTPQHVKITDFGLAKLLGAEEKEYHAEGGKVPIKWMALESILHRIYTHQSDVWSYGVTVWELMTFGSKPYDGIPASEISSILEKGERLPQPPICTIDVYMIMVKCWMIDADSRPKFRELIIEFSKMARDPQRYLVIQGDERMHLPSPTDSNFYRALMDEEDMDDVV", "assay": "KINOMEscan", "type": "binding", "settings": "read-out: %Ctrl @ 1000 nM"}, "[4]": {"target": "T4, MST4 (Homo sapiens, UniProt Q9P289)", "T4 construct": "purchased DiscoveRx KINOMEscan", "assay": "KINOMEscan", "type": "binding", "settings": "read-out: %Ctrl @ 1000 nM"}, "[5]": {"target": "T5, SG110 (Homo sapiens, UniProt P0C264)", "T5 construct": "purchased DiscoveRx KINOMEscan", "assay": "KINOMEscan", "type": "binding", "settings": "read-out: %Ctrl @ 1000 nM"}, "[6]": {"target": "T6, SLK (Homo sapiens, UniProt Q9H2G2)", "T6 construct": "purchased DiscoveRx KINOMEscan", "assay": "KINOMEscan", "type": "binding", "settings": "read-out: %Ctrl @ 1000 nM"}, "[7]": {"target": "T7, PRKCH (Homo sapiens, UniProt P24723)", "T7 construct": "purchased DiscoveRx KINOMEscan", "assay": "KINOMEscan", "type": "binding", "settings": "read-out: %Ctrl @ 1000 nM"}, "[8]": {"target": "T8, FLT3-autoinhibited (Homo sapiens, UniProt P36888)", "T8 construct": "purchased DiscoveRx KINOMEscan", "T8 sequence (P36888 564-993 limits assumed)": "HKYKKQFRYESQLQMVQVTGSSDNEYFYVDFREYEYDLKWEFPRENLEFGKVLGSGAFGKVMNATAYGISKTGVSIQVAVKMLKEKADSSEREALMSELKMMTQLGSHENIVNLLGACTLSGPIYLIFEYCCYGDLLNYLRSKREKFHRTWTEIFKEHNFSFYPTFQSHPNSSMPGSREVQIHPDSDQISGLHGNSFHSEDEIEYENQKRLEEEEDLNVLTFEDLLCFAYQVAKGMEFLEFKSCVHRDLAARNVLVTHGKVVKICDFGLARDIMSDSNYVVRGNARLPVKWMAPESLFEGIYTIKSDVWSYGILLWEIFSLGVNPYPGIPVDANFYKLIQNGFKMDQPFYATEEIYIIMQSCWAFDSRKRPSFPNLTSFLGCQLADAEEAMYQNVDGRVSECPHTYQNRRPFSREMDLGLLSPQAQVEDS", "assay": "KINOMEscan", "type": "binding", "settings": "read-out: %Ctrl @ 1000 nM"}, "[9]": {"target": "T9, SRMS (Homo sapiens, UniProt Q9H3Y6)", "T9 construct": "purchased DiscoveRx KINOMEscan", "assay": "KINOMEscan", "type": "binding", "settings": "read-out: %Ctrl @ 1000 nM"}, "[10]": {"target": "T10, MYO3A (Homo sapiens, UniProt Q8NEV4)", "T10 construct": "purchased DiscoveRx KINOMEscan", "assay": "KINOMEscan", "type": "binding", "settings": "read-out: %Ctrl @ 1000 nM"}, "[11]": {"target": "T11, TYK2(JH1domain-catalytic) (Homo sapiens, UniProt P29597)", "T11 construct": "TYK2(JH1domain-catalytic); purchased DiscoveRx KINOMEscan", "assay": "KINOMEscan", "type": "binding", "settings": "read-out: %Ctrl @ 1000 nM"}, "[12]": {"target": "T12, MLK2 (Homo sapiens, UniProt Q02779)", "T12 construct": "purchased DiscoveRx KINOMEscan", "assay": "KINOMEscan", "type": "binding", "settings": "read-out: %Ctrl @ 1000 nM"}, "[13]": {"target": "T13, DAPK1 (Homo sapiens, UniProt P53355)", "T13 construct": "purchased DiscoveRx KINOMEscan", "assay": "KINOMEscan", "type": "binding", "settings": "read-out: %Ctrl @ 1000 nM"}, "[14]": {"target": "SMYD2 (Homo sapiens, UniProt Q9NRG4)", "sequence (Q9NRG4 whole entry)": "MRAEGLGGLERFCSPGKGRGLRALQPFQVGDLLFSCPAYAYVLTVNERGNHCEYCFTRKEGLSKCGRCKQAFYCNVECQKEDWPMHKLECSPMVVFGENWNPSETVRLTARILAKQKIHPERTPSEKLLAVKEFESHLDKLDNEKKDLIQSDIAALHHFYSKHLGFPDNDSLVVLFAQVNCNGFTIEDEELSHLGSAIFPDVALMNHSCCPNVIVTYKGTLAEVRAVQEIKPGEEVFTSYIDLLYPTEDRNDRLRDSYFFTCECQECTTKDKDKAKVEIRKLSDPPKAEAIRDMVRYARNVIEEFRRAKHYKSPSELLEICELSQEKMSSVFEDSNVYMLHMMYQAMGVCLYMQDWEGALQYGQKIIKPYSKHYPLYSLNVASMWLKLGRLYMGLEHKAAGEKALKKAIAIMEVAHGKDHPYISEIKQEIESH", "assay": "Western blot of SY46 methylation signal in SMYD2 overexpressing KYSE150 cells, time course", "type": "cell-based", "design": "expressed in transfected cells", "settings": "10 µM", "from_the_text": "3. Figure S2 Validation of AHNAK as SMYD2 substrate\nFigure S2 (A) Overexpression of SMYD2 in KYSE.150 cells. SMYD2 is primarily detected in the cytosol. One SMYD2 overexpressing and one non.overexpressing cell are highlighted by arrows. The methylation signal detected by SY46 is overlapping with the SMYD2 overexpressing cells (B) Western blot analysis of SMYD2 overexpressing or parental KYSE150 cells. SY46 methylation antibody detects a strong increase in methylation signal in the high molecular weight region in SMYD2 overexpressing cells. (Later we discovered AHNAK as the high molecular substrate of around 630 kDa. Due to the high molecular weight of AHNAK and partial degradation different fragments are detected.) (C) Western blot analysis of SMYD2 overexpressing KYSE150 cells treated with DMSO or 10 µM of either AZ505 or (S).4 and harvested after the indicated time points. The methylation signal detected by SY46 was reduced in a time dependent manner. (D) Only expression of SMYD2 leads to specific methylation signals detected by SY46. Western blot analysis of a transient overexpression of wildtype (SMYD2WT /SMYD3WT) or enzymatically point mutants (SMYD2H207A/SMYD3N205A) of either SMYD2 or SMYD3 in MDA.MB231 or HeLa cells. Only in SMYD2WT cells a methylation signal is detected. Expression of green fluorescence protein (GFP) was used as control (E) […]"}, "[15]": {"target": "T14, MAP4K4 (Homo sapiens, UniProt O95819)", "T14 construct": "purchased DiscoveRx KINOMEscan", "assay": "KINOMEscan", "type": "binding", "settings": "read-out: %Ctrl @ 1000 nM"}, "[16]": {"target": "T15, GSK3A (Homo sapiens, UniProt P49840)", "T15 construct": "purchased DiscoveRx KINOMEscan", "assay": "KINOMEscan", "type": "binding", "settings": "read-out: %Ctrl @ 1000 nM"}, "[17]": {"target": "T16, RET(V804L) (Homo sapiens, UniProt P07949, V804L)", "T16 construct": "purchased DiscoveRx KINOMEscan", "T16 sequence (P07949 29-1114 V804L)": "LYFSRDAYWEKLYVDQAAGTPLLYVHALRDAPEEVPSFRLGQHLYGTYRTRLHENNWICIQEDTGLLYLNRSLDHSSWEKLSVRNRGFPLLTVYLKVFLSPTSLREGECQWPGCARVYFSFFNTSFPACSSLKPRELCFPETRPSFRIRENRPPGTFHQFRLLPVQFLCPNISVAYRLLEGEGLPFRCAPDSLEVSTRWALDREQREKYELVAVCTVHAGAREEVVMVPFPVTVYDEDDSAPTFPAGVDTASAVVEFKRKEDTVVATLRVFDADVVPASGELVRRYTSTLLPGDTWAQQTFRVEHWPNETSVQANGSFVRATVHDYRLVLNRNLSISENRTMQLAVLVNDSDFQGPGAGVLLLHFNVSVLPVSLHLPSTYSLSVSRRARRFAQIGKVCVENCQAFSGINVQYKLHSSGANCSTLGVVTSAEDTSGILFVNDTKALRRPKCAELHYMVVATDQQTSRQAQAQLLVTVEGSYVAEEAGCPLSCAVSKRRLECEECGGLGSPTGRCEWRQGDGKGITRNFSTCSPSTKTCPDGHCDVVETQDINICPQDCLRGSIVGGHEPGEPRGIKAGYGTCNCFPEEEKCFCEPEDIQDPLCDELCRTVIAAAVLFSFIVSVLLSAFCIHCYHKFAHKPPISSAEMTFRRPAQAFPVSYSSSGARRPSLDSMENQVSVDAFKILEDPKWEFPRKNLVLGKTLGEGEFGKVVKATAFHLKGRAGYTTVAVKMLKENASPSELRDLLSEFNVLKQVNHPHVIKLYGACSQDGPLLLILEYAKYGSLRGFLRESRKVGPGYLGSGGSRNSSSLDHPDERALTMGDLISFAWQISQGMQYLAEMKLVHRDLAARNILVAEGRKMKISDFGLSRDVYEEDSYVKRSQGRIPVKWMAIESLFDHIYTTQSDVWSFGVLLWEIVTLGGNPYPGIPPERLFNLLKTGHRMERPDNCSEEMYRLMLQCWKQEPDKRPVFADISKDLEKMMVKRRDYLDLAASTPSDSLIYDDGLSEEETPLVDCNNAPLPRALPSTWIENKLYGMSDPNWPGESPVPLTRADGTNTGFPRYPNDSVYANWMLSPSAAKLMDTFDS", "assay": "KINOMEscan", "type": "binding", "settings": "read-out: %Ctrl @ 1000 nM"}, "[18]": {"target": "T17, MYLK2 (Homo sapiens, UniProt Q9H1R3)", "T17 construct": "purchased DiscoveRx KINOMEscan", "assay": "KINOMEscan", "type": "binding", "settings": "read-out: %Ctrl @ 1000 nM"}, "[19]": {"target": "T18, EGFR(T790M) (Homo sapiens, UniProt P00533, T790M)", "T18 construct": "purchased DiscoveRx KINOMEscan", "assay": "KINOMEscan", "type": "binding", "settings": "read-out: %Ctrl @ 1000 nM"}, "[20]": {"target": "T19, PFTAIRE2 (Homo sapiens, UniProt Q96Q40)", "T19 construct": "purchased DiscoveRx KINOMEscan", "assay": "KINOMEscan", "type": "binding", "settings": "read-out: %Ctrl @ 1000 nM"}, "[21]": {"target": "T20, IKK-epsilon (Homo sapiens, UniProt Q14164)", "T20 construct": "purchased DiscoveRx KINOMEscan", "assay": "KINOMEscan", "type": "binding", "settings": "read-out: %Ctrl @ 1000 nM"}, "[22]": {"target": "T21, GCN2(Kin.Dom.2,S808G) (Homo sapiens, UniProt Q9P2K8, S808G)", "T21 construct": "GCN2(Kin.Dom.2,S808G); purchased DiscoveRx KINOMEscan", "T21 sequence (Q9P2K8 590-1001 S808G limits assumed)": "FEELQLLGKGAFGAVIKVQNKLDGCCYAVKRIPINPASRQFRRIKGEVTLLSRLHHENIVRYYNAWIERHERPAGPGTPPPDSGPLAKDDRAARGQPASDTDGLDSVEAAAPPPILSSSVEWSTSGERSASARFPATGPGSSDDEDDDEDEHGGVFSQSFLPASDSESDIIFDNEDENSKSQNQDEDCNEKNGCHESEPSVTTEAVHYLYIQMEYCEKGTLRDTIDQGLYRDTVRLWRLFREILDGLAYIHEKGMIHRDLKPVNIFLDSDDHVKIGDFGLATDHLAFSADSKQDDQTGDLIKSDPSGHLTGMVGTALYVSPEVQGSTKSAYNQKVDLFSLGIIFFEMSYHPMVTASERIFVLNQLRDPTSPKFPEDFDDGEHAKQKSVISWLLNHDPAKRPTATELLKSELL", "assay": "KINOMEscan", "type": "binding", "settings": "read-out: %Ctrl @ 1000 nM"}, "[23]": {"target": "T22, BMPR2 (Homo sapiens, UniProt Q13873)", "T22 construct": "purchased DiscoveRx KINOMEscan", "assay": "KINOMEscan", "type": "binding", "settings": "read-out: %Ctrl @ 1000 nM"}, "[24]": {"target": "T23, FGFR3 (Homo sapiens, UniProt P22607)", "T23 construct": "purchased DiscoveRx KINOMEscan", "T23 sequence (P22607 23-806)": "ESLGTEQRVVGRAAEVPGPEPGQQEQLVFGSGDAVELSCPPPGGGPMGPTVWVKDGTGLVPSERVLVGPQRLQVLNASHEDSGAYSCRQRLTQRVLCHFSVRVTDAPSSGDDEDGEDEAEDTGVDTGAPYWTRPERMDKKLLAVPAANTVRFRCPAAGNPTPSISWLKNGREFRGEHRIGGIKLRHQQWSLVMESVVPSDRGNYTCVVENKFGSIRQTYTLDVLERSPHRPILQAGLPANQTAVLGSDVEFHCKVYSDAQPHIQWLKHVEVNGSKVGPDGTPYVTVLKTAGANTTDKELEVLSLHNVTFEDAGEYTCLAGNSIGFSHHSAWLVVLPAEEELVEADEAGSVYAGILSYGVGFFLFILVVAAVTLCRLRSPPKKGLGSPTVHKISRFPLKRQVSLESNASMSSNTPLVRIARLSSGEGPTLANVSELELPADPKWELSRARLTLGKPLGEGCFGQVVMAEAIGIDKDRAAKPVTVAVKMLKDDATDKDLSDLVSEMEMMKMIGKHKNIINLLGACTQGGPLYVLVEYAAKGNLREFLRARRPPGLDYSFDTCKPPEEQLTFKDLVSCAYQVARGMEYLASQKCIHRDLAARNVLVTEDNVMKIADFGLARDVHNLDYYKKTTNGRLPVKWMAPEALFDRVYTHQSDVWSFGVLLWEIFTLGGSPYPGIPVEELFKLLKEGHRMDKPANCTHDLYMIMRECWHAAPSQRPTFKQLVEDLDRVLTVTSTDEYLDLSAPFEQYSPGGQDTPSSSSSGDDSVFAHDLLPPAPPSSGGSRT", "assay": "KINOMEscan", "type": "binding", "settings": "read-out: %Ctrl @ 1000 nM"}, "[25]": {"target": "T24, DCAMKL1 (Homo sapiens, UniProt O15075)", "T24 construct": "purchased DiscoveRx KINOMEscan", "assay": "KINOMEscan", "type": "binding", "settings": "read-out: %Ctrl @ 1000 nM"}, "[26]": {"target": "T25, RIPK4 (Homo sapiens, UniProt P57078)", "T25 construct": "purchased DiscoveRx KINOMEscan", "assay": "KINOMEscan", "type": "binding", "settings": "read-out: %Ctrl @ 1000 nM"}, "[27]": {"target": "T26, KIT-autoinhibited (Homo sapiens, UniProt P10721)", "T26 construct": "purchased DiscoveRx KINOMEscan", "T26 sequence (P10721 26-976)": "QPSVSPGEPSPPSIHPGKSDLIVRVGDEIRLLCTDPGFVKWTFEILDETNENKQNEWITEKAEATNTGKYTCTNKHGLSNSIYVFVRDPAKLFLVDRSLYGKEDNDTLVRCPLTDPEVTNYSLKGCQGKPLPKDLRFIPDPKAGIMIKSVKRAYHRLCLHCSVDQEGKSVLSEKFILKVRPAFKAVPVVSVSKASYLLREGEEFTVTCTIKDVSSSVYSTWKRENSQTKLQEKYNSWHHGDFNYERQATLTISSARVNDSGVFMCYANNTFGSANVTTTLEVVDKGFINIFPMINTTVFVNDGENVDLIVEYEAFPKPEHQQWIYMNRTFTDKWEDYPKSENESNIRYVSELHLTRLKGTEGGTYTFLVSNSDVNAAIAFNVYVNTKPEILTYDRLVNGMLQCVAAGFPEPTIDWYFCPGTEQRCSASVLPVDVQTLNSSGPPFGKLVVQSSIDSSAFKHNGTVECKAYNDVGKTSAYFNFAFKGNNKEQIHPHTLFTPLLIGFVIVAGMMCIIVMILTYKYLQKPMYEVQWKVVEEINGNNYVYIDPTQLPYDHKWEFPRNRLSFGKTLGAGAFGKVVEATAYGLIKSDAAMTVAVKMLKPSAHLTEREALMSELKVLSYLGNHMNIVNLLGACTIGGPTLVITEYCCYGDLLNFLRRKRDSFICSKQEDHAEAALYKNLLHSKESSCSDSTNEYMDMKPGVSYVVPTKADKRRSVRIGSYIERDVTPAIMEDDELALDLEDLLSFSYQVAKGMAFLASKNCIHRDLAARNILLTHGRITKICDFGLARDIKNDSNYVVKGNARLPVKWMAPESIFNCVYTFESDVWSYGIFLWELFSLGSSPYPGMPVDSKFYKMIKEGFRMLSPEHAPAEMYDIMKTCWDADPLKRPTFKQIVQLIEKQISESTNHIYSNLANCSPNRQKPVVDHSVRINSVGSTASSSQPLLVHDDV", "assay": "KINOMEscan", "type": "binding", "settings": "read-out: %Ctrl @ 1000 nM"}, "[28]": {"target": "T27, CAMKK2 (Homo sapiens, UniProt Q96RR4)", "T27 construct": "purchased DiscoveRx KINOMEscan", "T27 sequence (Q96RR4 whole entry)": "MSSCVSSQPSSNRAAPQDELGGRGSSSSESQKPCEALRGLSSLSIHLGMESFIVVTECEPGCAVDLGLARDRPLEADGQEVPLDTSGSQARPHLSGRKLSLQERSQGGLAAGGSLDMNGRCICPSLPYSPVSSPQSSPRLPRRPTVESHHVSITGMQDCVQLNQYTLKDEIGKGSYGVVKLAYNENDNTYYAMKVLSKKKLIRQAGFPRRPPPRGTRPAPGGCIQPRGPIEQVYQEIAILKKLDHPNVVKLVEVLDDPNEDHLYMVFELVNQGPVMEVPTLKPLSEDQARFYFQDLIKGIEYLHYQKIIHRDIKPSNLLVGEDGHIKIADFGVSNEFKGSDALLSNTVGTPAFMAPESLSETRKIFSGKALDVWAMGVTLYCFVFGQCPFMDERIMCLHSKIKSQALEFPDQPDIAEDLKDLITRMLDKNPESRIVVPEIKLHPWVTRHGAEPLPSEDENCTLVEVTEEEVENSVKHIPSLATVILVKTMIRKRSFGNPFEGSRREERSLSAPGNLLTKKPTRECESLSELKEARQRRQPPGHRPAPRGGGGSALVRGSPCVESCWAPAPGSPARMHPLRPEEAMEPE", "assay": "KINOMEscan", "type": "binding", "settings": "read-out: %Ctrl @ 1000 nM"}},
  "data": [
    {"molecule": "CCN(C(=O)CO)[C@H]1CN(/C(=N\\C#N)Nc2cccc(OC(F)F)c2)N=C1c1ccc(Cl)c(Cl)c1", "note": "[(S)-4]", "values": [
      {"measurement": "remaining binding at 1 µM", "setting": "[1]", "value": 78, "unit": "%"},
      {"measurement": "remaining binding at 1 µM", "setting": "[2]", "value": 74, "unit": "%"},
      {"measurement": "remaining binding at 1 µM", "setting": "[3]", "value": 86, "unit": "%"},
      {"measurement": "remaining binding at 1 µM", "setting": "[4]", "value": 81, "unit": "%"},
      {"measurement": "remaining binding at 1 µM", "setting": "[5]", "value": 92, "unit": "%"},
      {"measurement": "remaining binding at 1 µM", "setting": "[6]", "value": 66, "unit": "%"},
      {"measurement": "remaining binding at 1 µM", "setting": "[7]", "value": 80, "unit": "%"},
      {"measurement": "remaining binding at 1 µM", "setting": "[8]", "value": 100, "unit": "%"},
      {"measurement": "remaining binding at 1 µM", "setting": "[9]", "value": 94, "unit": "%"},
      {"measurement": "remaining binding at 1 µM", "setting": "[10]", "value": 100, "unit": "%"},
      {"measurement": "remaining binding at 1 µM", "setting": "[11]", "value": 88, "unit": "%"},
      {"measurement": "remaining binding at 1 µM", "setting": "[12]", "value": 77, "unit": "%"},
      {"measurement": "remaining binding at 1 µM", "setting": "[13]", "value": 100, "unit": "%"},
      {"measurement": "Methylation signal detected by SY46", "setting": "[14]", "value": "reduced"},
      {"measurement": "remaining binding at 1 µM", "setting": "[15]", "value": 100, "unit": "%"},
      {"measurement": "remaining binding at 1 µM", "setting": "[16]", "value": 88, "unit": "%"},
      {"measurement": "remaining binding at 1 µM", "setting": "[17]", "value": 84, "unit": "%"},
      {"measurement": "remaining binding at 1 µM", "setting": "[18]", "value": 100, "unit": "%"},
      {"measurement": "remaining binding at 1 µM", "setting": "[19]", "value": 86, "unit": "%"},
      {"measurement": "remaining binding at 1 µM", "setting": "[20]", "value": 100, "unit": "%"},
      {"measurement": "remaining binding at 1 µM", "setting": "[21]", "value": 99, "unit": "%"},
      {"measurement": "remaining binding at 1 µM", "setting": "[22]", "value": 100, "unit": "%"},
      {"measurement": "remaining binding at 1 µM", "setting": "[23]", "value": 100, "unit": "%"},
      {"measurement": "remaining binding at 1 µM", "setting": "[24]", "value": 88, "unit": "%"},
      {"measurement": "remaining binding at 1 µM", "setting": "[25]", "value": 67, "unit": "%"},
      {"measurement": "remaining binding at 1 µM", "setting": "[26]", "value": 100, "unit": "%"},
      {"measurement": "remaining binding at 1 µM", "setting": "[27]", "value": 90, "unit": "%"},
      {"measurement": "remaining binding at 1 µM", "setting": "[28]", "value": 84, "unit": "%"}
    ]}
  ]
}
